This passage reports IC50 results from patent EP3807270B1, “NOVEL HETEROARYL HETEROCYCLYL COMPOUNDS FOR THE TREATMENT OF AUTOIMMUNE DISEASE” (F. Hoffmann-La Roche AG, priority 2018, dated 2019).

For the assay, the target named is T1, hTLR7 (Homo sapiens, UniProt Q9NYK1).
T1 sequence (Q9NYK1 27-1049): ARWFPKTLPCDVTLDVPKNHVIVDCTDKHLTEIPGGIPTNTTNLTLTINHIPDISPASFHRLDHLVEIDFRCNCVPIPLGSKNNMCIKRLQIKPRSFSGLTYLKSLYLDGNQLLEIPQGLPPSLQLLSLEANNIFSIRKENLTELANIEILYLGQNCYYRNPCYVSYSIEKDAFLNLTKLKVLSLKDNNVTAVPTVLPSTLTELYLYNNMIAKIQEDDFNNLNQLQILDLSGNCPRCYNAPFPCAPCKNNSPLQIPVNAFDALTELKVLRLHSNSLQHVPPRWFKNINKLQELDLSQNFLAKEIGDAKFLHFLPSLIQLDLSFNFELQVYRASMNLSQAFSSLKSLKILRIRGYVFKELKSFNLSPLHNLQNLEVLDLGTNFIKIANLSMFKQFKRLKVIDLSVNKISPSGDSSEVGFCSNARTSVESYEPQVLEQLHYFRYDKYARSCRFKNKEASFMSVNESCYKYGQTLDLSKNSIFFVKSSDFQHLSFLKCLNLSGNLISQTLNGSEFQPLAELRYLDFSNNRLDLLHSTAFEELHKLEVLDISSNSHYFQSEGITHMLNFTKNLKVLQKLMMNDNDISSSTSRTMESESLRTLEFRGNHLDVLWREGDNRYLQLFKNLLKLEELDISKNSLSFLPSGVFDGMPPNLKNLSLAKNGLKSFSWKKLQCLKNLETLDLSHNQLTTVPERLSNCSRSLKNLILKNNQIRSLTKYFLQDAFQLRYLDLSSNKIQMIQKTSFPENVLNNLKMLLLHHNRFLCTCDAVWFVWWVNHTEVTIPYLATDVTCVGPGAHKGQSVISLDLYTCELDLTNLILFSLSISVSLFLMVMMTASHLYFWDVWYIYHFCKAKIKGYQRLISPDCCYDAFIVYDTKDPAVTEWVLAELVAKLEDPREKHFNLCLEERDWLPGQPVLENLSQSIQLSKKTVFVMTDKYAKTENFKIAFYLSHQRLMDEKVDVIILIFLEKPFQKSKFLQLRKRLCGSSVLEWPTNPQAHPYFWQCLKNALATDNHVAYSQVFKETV
The assay is described as follows: HEK293-Blue-hTLR-7 cells assay (SEAP reporter, R848 stimulation). Type of assay: cell-based. Also noted: host or cells: HEK293 (HEK-Blue). The following applies: HEK293-Blue-hTLR7 cells, R848, 20 hrs; read-out: HEK/hTLR7 IC50. The text has this:
A stable HEK293-Blue-hTLR-7 cell line was purchased from InvivoGen (Cat.#: hkb-htlr7, San Diego, California, USA). These cells were originally designed for studying the stimulation of human TLR7 by monitoring the activation of NF-κB. A SEAP (secreted embryonic alkaline phosphatase) reporter gene was placed under the control of the IFN-β minimal promoter fused to five NF-κB and AP-1-binding sites. The SEAP was induced by activating NF-xB and AP-1 via stimulating HEK-Blue hTT,R7 cells with TLR7 ligands. Therefore, the reporter expression was declined by TLR7 antagonist under the stimulation of a ligand, such as R848 (Resiquimod), for incubation of 20 hrs. The cell culture supernatant SEAP reporter activity was determined using QUANTI-Blue™ kit (Cat.#: rep-qb1, Invivogen, San Diego, Ca, USA) at a wavelength of 640 nm, a detection medium that turns purple or blue in the presence of alkaline phosphatase.
HEK293-Blue-hTLR7 cells were incubated at a density of 250,000-450,000 cells/mL in a volume of 170 µL in a 96-well plate in Dulbecco's Modified Eagle's medium (DMEM) containing 4.5 g/L glucose, 50 U/mL penicillin, […], […], 2 mM L-glutamine, 10% (v/v) heat-inactivated fetal bovine serum with addition of 20 µL test compound in a serial dilution in the presence of final DMSO at 1% and 10 µL of 20uM R848 in above DMEM, perform incubation under 37 °C in a CO2 incubator for 20 hrs. Then 20 µL of the supernatant from each well was incubated with 180 µL Quanti-blue substrate solution at 37 °C for 2 hrs and the absorbance was read at 620-655 nm using a spectrophotometer. The signaling pathway that TLR7 activation leads to downstream NF-xB activation has been widely accepted, and therefore similar reporter assay was modified for evaluating TLR7 antagonist.

For `C[C@@H]1CN(c2ccc(C#N)c3ncccc23)C[C@H](CN2CCN(c3cc4c(cn3)CNCC4)CC2)O1` [Example 19, 5-[(2R,6S)-2-methyl-6-[[4-(5,6,7,8-tetrahydro-2,7-naphthyridin-3-yl)piperazin-1-yl]methyl]morpholin-4-yl]quinoline-8-carbonitrile], the IC50 came to 9 nM.

With `C[C@@H]1CN(c2ccc(C#N)c3ncccc23)C[C@H](CN2CCN(c3cnc4c(c3)CNCC4)CC2)O1` [Example 21, 5-[(2R,6S)-2-methyl-6-[[4-(5,6,7,8-tetrahydro-1,6-naphthyridin-3-yl)piperazin-1-yl]methyl]morpholin-4-yl]quinoline-8-carbonitrile], the IC50 turned out to be 11 nM.

On to `C[C@@H]1CN(c2ccc(C#N)c3nccnc23)C[C@H](CN2CCN(c3cnc4c(c3)CNC4)CC2)O1` [Example 25, 8-[(2S,6R)-2-[[4-(6,7-dihydro-5H-pyrrolo[3,4-b]pyridin-3-yl)piperazin-1-yl]methyl]-6-methyl-morpholin-4-yl] quinoxaline-5-carbonitrile], for which the IC50 came to 19 nM.

Turning to `C[C@@H]1CN(c2ccc(C#N)n3ncc(F)c23)C[C@H](CN2CCN(c3cnc4c(c3)CNC4)CC2)O1` [Example 26, 4-[(2S,6R)-2-[[4-(6,7-dihydro-5H-pyrrolo[3,4-b]pyridin-3-yl)piperazin-1-yl]methyl]-6-methyl-morpholin-4-yl]-3-fluoro-pyrazolo[1,5-a]pyridine-7-carbonitrile], the IC50 turned out to be 39 nM.

For `C[C@@H]1CN(c2ccc(C#N)c3ncccc23)C[C@H](CN2CCN(c3ncc4c(n3)CCNC4)CC2)O1` [Example 29, 5-[(2R,6S)-2-methyl-6-[[4-(5,6,7,8-tetrahydropyrido[4,3-d]pyrimidin-2-yl)piperazin-1-yl]methyl]morpholin-4-yl]quinoline-8-carbonitrile], the IC50 amounted to 11 nM.

In the case of `C[C@@H]1CN(c2ccc(C#N)c3ncccc23)C[C@H](CN2CCN(c3ccc4c(n3)CNC4)CC2)O1` [Example 30, 5-[(2S,6R)-2-[[4-(6,7-dihydro-5H-pyrrolo[3,4-b]pyridin-2-yl)piperazin-1-yl]methyl]-6-methyl-morpholin-4-yl] quinoline-8-carbonitrile], the IC50 is 12 nM.

Turning to `C[C@@H]1CN(c2ccc(C#N)c3ncccc23)C[C@H](CN2CCN(c3nc4c(s3)CNCC4)CC2)O1` [Example 31, 5-[(2R,6S)-2-methyl-6-[[4-(4,5,6,7-tetrahydrothiazolo[5,4-c]pyridin-2-yl)piperazin-1-yl]methyl]morpholin-4-yl]quinoline-8-carbonitrile], the IC50 was determined as 11 nM.

As to `C[C@@H]1CN(c2ccc(C#N)c3ncccc23)C[C@H](CN2CCC(Nc3ncc4c(n3)CNC4)C2)O1` (stereo partly drawn) [Example 32, 5-[(2S,6R)-2-[[3-(6,7-dihydro-5H-pyrrolo[3,4-d]pyrimidin-2-ylamino)pyrrolidin-1-yl]methyl]-6-methyl-morpholin-4-yl]quinoline-8-carbonitrile], the IC50 came to 69 nM.

`C[C@@H]1CN(c2ccc(C#N)c3ncccc23)C[C@H](CN2CCCN(c3nc4c(s3)CNCC4)CC2)O1` [Example 33, 5-[(2R,6S)-2-methyl-6-[[4-(4,5,6,7-tetrahydrothiazolo[5,4-c]pyridin-2-yl)-1,4-diazepan-1-yl]methyl]morpholin-4-yl]quinoline-8-carbonitrile]: the IC50 was found to be 17 nM.

For `C[C@@H]1CN(c2ccc(C#N)c3ncccc23)C[C@H](CN2CCN(c3ccc4c(n3)CCN(C)C4)CC2)O1` [Example 34, 5-[(2R,6S)-2-methyl-6-[[4-(6-methyl-7,8-dihydro-5H-1,6-naphthyridin-2-yl)piperazin-1-yl]methyl]morpholin-4-yl]quinoline-8-carbonitrile], the IC50 was determined as 18 nM.

As to `C[C@@H]1CN(c2ccc(C#N)c3ncccc23)C[C@H](CN2CC3(CCN3c3ccc4c(n3)CCNC4)C2)O1` [Example 36, 5-[(2R,6S)-2-methyl-6-[[1-(5,6,7,8-tetrahydro-1,6-naphthyridin-2-yl)-1,6-diazaspiro[3.3]heptan-6-yl]methyl]morpholin-4-yl]quinoline-8-carbonitrile], the IC50 was determined as 26 nM.
